Results as given in patent publication US11591355B2 (Peloton Therapeutics, Inc., priority 2017, dated 2023).

Key:
Human CD73 = biological target: T1, Human CD73 (Homo sapiens, UniProt P21589); experiment: CD73 Enzyme Assay; format: biochemical; conditions: 0.25 nM hCD73, 25 μM AMP, kinetic read at 360 nm; read-out: CD73 Enzyme Assay IC50
T1 construct: purchased R&D Systems; host or cells: CHO cells
T1 sequence (P21589 27-549): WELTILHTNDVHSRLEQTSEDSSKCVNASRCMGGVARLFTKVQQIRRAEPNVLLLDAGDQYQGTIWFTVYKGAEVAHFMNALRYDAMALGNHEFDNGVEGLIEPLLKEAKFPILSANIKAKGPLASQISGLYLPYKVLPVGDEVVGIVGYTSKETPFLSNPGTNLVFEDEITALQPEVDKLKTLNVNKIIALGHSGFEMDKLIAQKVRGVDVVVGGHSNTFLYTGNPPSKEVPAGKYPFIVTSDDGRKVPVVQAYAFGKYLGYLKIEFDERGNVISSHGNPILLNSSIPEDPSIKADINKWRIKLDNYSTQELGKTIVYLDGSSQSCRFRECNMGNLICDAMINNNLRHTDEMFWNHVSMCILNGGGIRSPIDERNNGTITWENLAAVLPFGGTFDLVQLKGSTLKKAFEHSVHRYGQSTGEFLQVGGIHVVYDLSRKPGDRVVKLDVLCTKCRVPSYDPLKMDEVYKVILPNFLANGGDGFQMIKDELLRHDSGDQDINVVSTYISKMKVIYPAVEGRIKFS

[1] = biological target: T2, CD73 on U138 human neuroglioma cells (Homo sapiens, UniProt P21589); experiment: CD73 Cell-Based Assay; conditions: U138 cells, AMP substrate, 2 hours at 37° C., inorganic phosphate by malachite green
T2 construct: U138 cells were obtained from ATCC and cultured in DMEM with 10% FBS; host or cells: U138 human neuroglioma cells
T2 sequence (P21589 27-549): T1 sequence (P21589 27-549)
Procedure, shortened: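 Whole U138 cells washed free of phosphate were incubated with 200 μM AMP (mixture concentration before equal-volume addition) plus compound in HEPES-buffered saline, pH 7.4, for 2 h at 37 °C, 5% CO2. Adenosine-forming activity read as inorganic phosphate released into supernatant by malachite green.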

Row | SMILES | IC50 (Human CD73) [nM] | IC50 [1] [nM]
1 | O=P(O)(O)COC[C@H]1O[C@H](c2csc3c(N4CC5CCCC5C4)nc(Cl)nc23)[C@H](O)[C@@H]1O (stereo partly drawn) [Compound 304, [(2R,3S,4R,5R)-5-[4-(3,3a,4,5,6,6a-hexa-hydro-1H-cyclopenta-[c]pyrrol-2-yl)-2-chloro-thieno[3,2-d]-pyrimidin-7-yl]-3,4-dihydroxy-tetrahydro-furan-2-yl]methoxy-methylphosphonic acid] | > 1000 | > 1000
2 | O=P(O)(O)COC[C@H]1O[C@@H](c2csc3c(NC4CCCC4)nc(Cl)nc23)[C@H](O)[C@@H]1O [Compound 305, [(2R,3S,4R,5S)-5-[2-chloro-4-(cyclopentyl-amino)thieno[3,2-d]-pyrimidin-7-yl]-3,4-dihydroxy-tetrahydro-furan-2-yl]methoxy-methylphosphonic acid] | 10 to 100 | 10 to 100
3 | C[C@H](Nc1nc(C#N)nc2c1cnn2[C@@H]1O[C@H](CS(=O)(=O)CP(=O)(O)O)[C@@H](O)[C@H]1O)c1ccc(F)cc1 [Compound 307, [(2S,3S,4R,5R)-5-[6-cyano-4-[[(1S)-1-(4-fluorophenyl)ethyl]-amino]pyrazolo[3,4-d]pyrimidin-1-yl]-3,4-dihydroxy-tetrahydro-furan-2-yl]methyl-sulfonylmethylphos-phonic acid] | 10 to 100 | < 10
4 | N#Cc1nc(NC2CCC2)c2cnn([C@@H]3O[C@H](CS(=O)(=O)CP(=O)(O)O)[C@@H](O)[C@H]3O)c2n1 [Compound 308, [(2S,3S,4R,5R)-5-[6-cyano-4-(cyclobutyl-amino)pyrazolo[3,4-d]-pyrimidin-1-yl]-3,4-dihydroxy-tetrahydro-furan-2-yl]methyl-sulfonylmethylphos-phonic acid] | < 10 | < 10
